Like-named read-outs stand apart in the source and are kept apart here.
Experiments:
[1] = system: MSSA (Methicillin-susceptible Staphylococcus aureus); experiment: Minimum inhibitory concentration (broth microdilution) and FIC index; format: cell-based; conditions: MSSA
Experimental: (§1) A serial of twofold dilution of the tested antibiotics (oxacillin, erythromycin, ampicillin, kanamycin, levofoxacin, vancomycin and doxycycline) was perform by Broth microdilution method to a final concentration of 2-512 μg/mL. The bacterial overnight culture was collected and re-suspended in the Muller-Hilton (M-H) broth. An aliquot of cell suspension (OD600=0.1) was prepared. The bacterial suspensions were plated in 96-well plate and incubated with test antibiotics at 37° C. in a 5% CO2 incubator (Table 1 to Table 4).
(§2) The […], […] and antagonism between two drugs was evaluated by the following formula:
(§3) [formula] The criteria of fractional inhibitory concentration index: […]

MRSA 18271 = experiment: as above; format: cell-based, Staphylococcus aureus
Experimental: as §1, §2, §3

MRSA 18631 = experiment: as above; format: cell-based, Staphylococcus aureus
Experimental: as §1, §2, §3

MRSA 19615 = experiment: as above; format: cell-based, Staphylococcus aureus
Experimental: as §1, §2, §3

[2] = system: standard MRSA strain (ATCC 33591); experiment: Minimum inhibitory concentration (broth microdilution); format: cell-based, Staphylococcus aureus; conditions: Staphylococcus aureus, Table 1
Experimental: as §1

[3] = Table 3, Tellimagrandin II (40 μg/ml) +
[4] = Table 3, 18271, Tellimagrandin II (40 μg/ml) +
[5] = Table 3, 18631, Tellimagrandin II (40 μg/ml) +
[6] = Table 3, 19615, Tellimagrandin II (40 μg/ml) +
[7] = Staphylococcus aureus, Table 1, read-out: Minimum inhibitory concentration
[8] = Staphylococcus aureus, MRSA, Table 1, MRSA 18271, read-out: Minimum inhibitory concentration
[9] = Staphylococcus aureus, MRSA, Table 1, MRSA 18631, read-out: Minimum inhibitory concentration
[10] = Staphylococcus aureus, MRSA, Table 1, MRSA 19615, read-out: Minimum inhibitory concentration

Row | SMILES | MIC ([1]; Staphylococcus aureus) | FIC [1, 3] | MIC [1, 3] | MIC (MRSA 18271; Staphylococcus aureus, MRSA) | FIC (MRSA 18271; [4]) | MIC (MRSA 18271; [4]) | MIC (MRSA 18631; Staphylococcus aureus, MRSA) | FIC (MRSA 18631; [5]) | MIC (MRSA 18631; [5]) | MIC (MRSA 19615; Staphylococcus aureus, MRSA) | FIC (MRSA 19615; [6]) | MIC (MRSA 19615; [6]) | MIC [1, 7] | MIC (MRSA 18271; [8]) | MIC (MRSA 18631; [9]) | MIC (MRSA 19615; [10]) | MIC [2] | further results
1 | CC1(C)S[C@@H]2[C@H](NC(=O)[C@H](N)c3ccccc3)C(=O)N2[C@H]1C(=O)O [Ampicillin] | 512 µg/mL | 0.50 | 256 µg/mL | 512 µg/mL | 0.031 | 16 µg/mL | 512 µg/mL | 1.00 | 512 µg/mL | 512 µg/mL | 1.00 | 512 µg/mL | – | – | – | – | – | –
2 | NC[C@H]1O[C@H](O[C@H]2[C@H](O)[C@@H](O[C@H]3O[C@H](CO)[C@@H](O)[C@H](N)[C@H]3O)[C@H](N)C[C@@H]2N)[C@H](O)[C@@H](O)[C@@H]1O [Kanamycin] | – | – | – | – | – | – | – | – | – | – | – | – | > 512 µg/mL | > 512 µg/mL | > 512 µg/mL | > 512 µg/mL | > 512 µg/mL | MIC ([1]; Staphylococcus aureus, Table 3, Tellimagrandin II (40 μg/ml) −, read-out: MIC): 512 µg/mL; MIC (MRSA 18271; Staphylococcus aureus, MRSA, Table 3, 18271, Tellimagrandin II (40 μg/ml) −, read-out: MIC): 512 µg/mL; MIC (MRSA 18631; Staphylococcus aureus, MRSA, Table 3, 18631, Tellimagrandin II (40 μg/ml) −, read-out: MIC): 512 µg/mL; MIC (MRSA 19615; Staphylococcus aureus, MRSA, Table 3, 19615, Tellimagrandin II (40 μg/ml) −, read-out: MIC): 512 µg/mL
3 | CC[C@H]1OC(=O)[C@H](C)[C@@H](O[C@H]2C[C@@](C)(OC)[C@@H](O)[C@H](C)O2)[C@H](C)[C@@H](O[C@@H]2O[C@H](C)C[C@H](N(C)C)[C@H]2O)[C@](C)(O)C[C@@H](C)C(=O)[C@H](C)[C@@H](O)[C@]1(C)O [Erythromycin] | – | 0.50 | 64 µg/mL | 512 µg/mL | 1.00 | 512 µg/mL | 512 µg/mL | 1.00 | 512 µg/mL | 512 µg/mL | 1.00 | 512 µg/mL | 128 µg/mL | > 512 µg/mL | > 512 µg/mL | > 512 µg/mL | > 512 µg/mL | –
4 | CN[C@H](CC(C)C)C(=O)N[C@H]1C(=O)N[C@@H](CC(N)=O)C(=O)N[C@H]2C(=O)N[C@H]3C(=O)N[C@H](C(=O)N[C@H](C(=O)O)c4cc(O)cc(O)c4-c4cc3ccc4O)[C@H](O)c3ccc(c(Cl)c3)Oc3cc2cc(c3O[C@@H]2O[C@H](CO)[C@@H](O)[C@H](O)[C@H]2O[C@H]2C[C@](C)(N)[C@H](O)[C@H](C)O2)Oc2ccc(cc2Cl)[C@H]1O [Vancomycin] | > 2 µg/mL | – | >2 µg/mL | 4 µg/mL | 1.00 | 4 µg/mL | 4 µg/mL | 1.00 | 4 µg/mL | 4 µg/mL | 1.00 | 4 µg/mL | – | – | – | – | – | –

From US8975234B2, “Anti-bacterial infection, inflammation, and leukemia composition and use thereof” (priority 2011, dated 2015)
